US20090123507A1, “Metal Oxide Nanoparticles Coated With Specific N-Acylaminomethylene Phosphonates” (priority 2005, published 2009)

Key:
E. coli (ATCC 10536) = experiment: European Standard Assay method EN 1040, antimicrobial bioassay; format: cell-based; conditions: logarithmic scale (5 = factor of 100000); for Bioassay data E. coli 5 min: 5 min incubation; for Bioassay data E. coli 30 min: 30 min incubation
Experimental: (§1) The titanium dioxide particles coated with the appropriate phosphonates were subsequently assayed according the European Standard Assay method EN 1040 against two representative microbes:
(§2) S. aureaus (ATCC 6538) and E. coli (ATCC 10536).
(§3) Both microbes were incubated with the coated nanoparticles together with their corresponding free phosphonates within the same apparent concentrations for 5 and 30 minutes, respectively.
(§4) The data are given in a logarithmic scale which means that the number 5 indicates an increase of activity by a factor of 100000.

S. aureus (ATCC 6538) = experiment: as above; format: cell-based; conditions: logarithmic scale (5 = factor of 100000); for Bioassay data S. aureus 5 min: 5 min incubation; for Bioassay data S. aureus 30 min: 30 min incubation
Experimental: as §1, §2, §3, §4

CCOP(=O)(CCNC(=O)CCCCCN=[N+]=[N-])OCC [Compound L]
<1: Bioassay data E. coli 5 min (E. coli (ATCC 10536)) | Bioassay data E. coli 30 min (E. coli (ATCC 10536)) | Bioassay data S. aureus 5 min (S. aureus (ATCC 6538)) | Bioassay data S. aureus 30 min (S. aureus (ATCC 6538))

CCCCCCCCCCCCCCCCCC(=O)NCCP(=O)(OCC)OCC [Compound J]
<1: Bioassay data E. coli 5 min (E. coli (ATCC 10536)) | Bioassay data E. coli 30 min (E. coli (ATCC 10536)) | Bioassay data S. aureus 5 min (S. aureus (ATCC 6538)) | Bioassay data S. aureus 30 min (S. aureus (ATCC 6538))

CCOP(=O)(CCNC(=O)CCC(=O)O)OCC [Compound M]
<1: Bioassay data E. coli 5 min (E. coli (ATCC 10536)) | Bioassay data E. coli 30 min (E. coli (ATCC 10536)) | Bioassay data S. aureus 5 min (S. aureus (ATCC 6538)) | Bioassay data S. aureus 30 min (S. aureus (ATCC 6538))

CCOP(=O)(CCC#N)OCC [Compound A]
<1: Bioassay data E. coli 5 min (E. coli (ATCC 10536)) | Bioassay data E. coli 30 min (E. coli (ATCC 10536)) | Bioassay data S. aureus 5 min (S. aureus (ATCC 6538)) | Bioassay data S. aureus 30 min (S. aureus (ATCC 6538))

CCOP(=O)(CCCCNC(=O)OCc1ccccc1)OCC [Compound N]
<1: Bioassay data E. coli 5 min (E. coli (ATCC 10536)) | Bioassay data E. coli 30 min (E. coli (ATCC 10536)) | Bioassay data S. aureus 5 min (S. aureus (ATCC 6538)) | Bioassay data S. aureus 30 min (S. aureus (ATCC 6538))

CCCCCCCC/C=C/CCCCCCCC(=O)NCCP(=O)(OCC)OCC [Compound K]
<1: Bioassay data E. coli 5 min (E. coli (ATCC 10536)) | Bioassay data E. coli 30 min (E. coli (ATCC 10536)) | Bioassay data S. aureus 5 min (S. aureus (ATCC 6538)) | Bioassay data S. aureus 30 min (S. aureus (ATCC 6538))
